Reference: US11945822B2, “Pyrazolo-triazine and/or pyrazolo-pxrimidine derivatives as selective inhibitor of cyclin dependent kinase” (QURIENT CO., LTD., priority 2018, dated 2024)

Legend:
[1] = tested on: HCT116; experiment: Cellular HCT116 viability assay (CellTiter-Glo, 72 hours); type: cell-based; settings: Homo sapiens, HCT-116
Procedure, shortened: (§1)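 Steps: seed cells at per-line density; add compound, DMSO vehicle kept under 0.1% final; incubate 72 h, 37 °C, 5% CO2; lyse with CellTiter-Glo and read luminescence; run in duplicate.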

[2] = biological target: T1, CDK5/p25 (Homo sapiens, UniProt Q00535); experiment: Enzymatic assay for CDK5 (FRET based LANCE Ultra kinase assay); type: biochemical; settings: read-out: CDK5 enzymatic activity (IC50 range)
T1 construct: purchased Invitrogen PR8543B
Procedure, shortened: (§2)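 Each CDK complex ([…]) phosphorylated 68 nM ULight-MBP peptide with ATP at Km for 60 min at 23° C., against 8 compound doses (4-fold dilutions). EDTA/Eu-anti-phospho-MBP detection, 60 min, then TR-FRET emission at 615 and 665 nm.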

[3] = tested on: H460; experiment: Cellular H460 viability assay (CellTiter-Glo, 72 hours); type: cell-based; settings: Homo sapiens, NCI-H460
Procedure, shortened: as §1

[4] = tested on: MM.1S; experiment: Cellular MM.1S viability assay (CellTiter-Glo, 72 hours); type: cell-based; settings: Homo sapiens, MM1.S
Source text: Human T-cell acute lymphoblastic leukemia cell line, MOLT-4 (ATCC, Cat #CRL-1582), Human multiple myeloma cell line, RPMI-8226 (Invitrogen, Cat #22400-089) and MM.1S (ATCC, Cat #CRL-2974), NSCLC (Non-small cell lung cancer) cell line H460 (ATCC, Cat #HTB-177), Human colon colorectal carcinoma cell line HCT116 (ATCC, Cat #CCL-247), Human acute monocytic leukemia cell line MV4-11 (ATCC, Cat #CRL-9591), OVCAR-3 (ATCC, Cat #HTB-161) and A2780 (ECACC, Cat #93112519) were obtained from ATCC. Cells were grown in RPMI-1640 media (Invitrogen, Cat #22400-089) supplemented with 10% FBS (Invitrogen, Cat #10099141) and 1% penicillin/streptomycin (Invitrogen, Cat #15070063) and cultured at 37° C., 5% CO2 in a humidified chamber. All cell lines were routinely tested for mycoplasma.
The effect of the CDK7 inhibitor to inhibit the growth of target cancer cells was evaluated through the 72 hours time period of viability assay. Briefly, the candidate cell line ware plated in 96 well plate at the following density of cells respectively. 1×10^4 cells/well for MOLT-4, RPMI-8226, MV4-11 and MM.1S, 5×10^3 for H460, HCT116 and OVCAR-3 and IX 10^3 for A2780. After 24 hours, the cells were treated with various concentrations of the compound (ranging from 0.0015 uM to 10 uM). DMSO solvent without compound served as a control and final DMSO concentration less than 0.1%. After 72 hours of incubation at 37° C., 5% CO2 incubator, cells were analyzed for the viability using the CellTiter-Glo Luminescent Cell Viability Assay (Promega, Cat #G7570). All viability assays were performed in duplicate and Luminescence was read using an Envision (Perkin Elmer, USA). Data was analyzed using XLfit software.

[5] = tested on: MV4-11; experiment: Cellular MV4-11 viability assay (CellTiter-Glo, 72 hours); type: cell-based; settings: Homo sapiens
Procedure, shortened: as §1

[6] = biological target: T2, CDK2/Cyclin A (Homo sapiens, UniProt P24941); experiment: Enzymatic assay for CDK2 (FRET based LANCE Ultra kinase assay); type: biochemical; settings: read-out: CDK2 enzymatic activity (IC50 range)
T2 construct: purchased Invitrogen PV6290
Procedure, shortened: as §2

[7] = biological target: T3, CDK1/Cyclin B (Homo sapiens, UniProt P06493); experiment: Enzymatic assay for CDK1 (FRET based LANCE Ultra kinase assay); type: biochemical; settings: read-out: CDK1 enzymatic activity (IC50 range)
T3 construct: purchased Invitrogen PR4768C
Procedure, shortened: as §2

[8] = biological target: T4, CDK7/Cyclin H/MNAT1 (Homo sapiens, UniProt P50613); experiment: Enzymatic assay for CDK7 (FRET based LANCE Ultra kinase assay); type: biochemical; settings: for IC50: read-out: CDK7 enzymatic activity (IC50 range)
T4 construct: purchased Invitrogen PR6749B
Procedure, shortened: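 LANCE Ultra TR-FRET kinase assay using a ULight-labeled peptide substrate and a Eu-labeled anti-phospho antibody, with ATP at its Km. Purified CDK/cyclin complex was added to compound after brief centrifugation.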

[9] = tested on: RPMI-8226; experiment: Cellular RPMI-8226 viability assay (CellTiter-Glo, 72 hours); type: cell-based; settings: Homo sapiens
Procedure, shortened: as §1

[10] = tested on: MOLT-4; experiment: Cellular MOLT-4 viability assay (CellTiter-Glo, 72 hours); type: cell-based; settings: Homo sapiens, MOLT4 viability assay
Procedure, shortened: as §1

T3 sequence (P06493 whole entry): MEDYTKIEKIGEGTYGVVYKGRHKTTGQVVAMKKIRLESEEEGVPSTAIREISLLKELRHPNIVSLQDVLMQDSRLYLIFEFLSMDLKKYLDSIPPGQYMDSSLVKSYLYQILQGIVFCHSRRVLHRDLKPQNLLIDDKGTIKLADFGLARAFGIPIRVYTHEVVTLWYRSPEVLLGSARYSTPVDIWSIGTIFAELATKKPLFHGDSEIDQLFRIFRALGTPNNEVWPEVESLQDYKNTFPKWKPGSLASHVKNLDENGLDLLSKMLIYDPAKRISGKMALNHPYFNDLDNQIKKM
T3 sequence (P14635 whole entry partner): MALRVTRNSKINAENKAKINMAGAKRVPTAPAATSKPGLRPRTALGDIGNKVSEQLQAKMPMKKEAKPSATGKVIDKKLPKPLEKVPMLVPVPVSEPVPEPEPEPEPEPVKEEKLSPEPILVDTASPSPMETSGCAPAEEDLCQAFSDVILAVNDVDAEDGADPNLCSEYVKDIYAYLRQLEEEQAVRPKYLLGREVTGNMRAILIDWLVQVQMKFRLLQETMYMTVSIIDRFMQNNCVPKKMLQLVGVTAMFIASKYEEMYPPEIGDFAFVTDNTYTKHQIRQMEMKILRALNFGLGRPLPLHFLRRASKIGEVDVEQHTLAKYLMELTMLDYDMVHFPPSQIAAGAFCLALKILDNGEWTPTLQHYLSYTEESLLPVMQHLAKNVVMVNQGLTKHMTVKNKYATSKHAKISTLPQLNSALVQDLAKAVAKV
T1 sequence (Q00535 whole entry): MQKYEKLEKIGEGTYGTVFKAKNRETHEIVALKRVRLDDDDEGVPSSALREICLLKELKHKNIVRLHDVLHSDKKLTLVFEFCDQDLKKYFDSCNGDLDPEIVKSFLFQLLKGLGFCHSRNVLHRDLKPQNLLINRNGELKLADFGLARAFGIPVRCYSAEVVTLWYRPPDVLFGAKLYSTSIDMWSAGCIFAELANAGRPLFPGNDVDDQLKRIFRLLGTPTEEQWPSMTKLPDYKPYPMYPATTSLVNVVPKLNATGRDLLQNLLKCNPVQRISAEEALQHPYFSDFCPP
T1 sequence (Q15078 99-307 partner limits assumed): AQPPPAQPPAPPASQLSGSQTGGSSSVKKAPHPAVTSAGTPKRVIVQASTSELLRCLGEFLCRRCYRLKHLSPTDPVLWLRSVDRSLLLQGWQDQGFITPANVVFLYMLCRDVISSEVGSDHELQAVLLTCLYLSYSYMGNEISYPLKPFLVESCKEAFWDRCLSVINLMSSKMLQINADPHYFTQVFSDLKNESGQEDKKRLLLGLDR
T4 sequence (P50613 whole entry): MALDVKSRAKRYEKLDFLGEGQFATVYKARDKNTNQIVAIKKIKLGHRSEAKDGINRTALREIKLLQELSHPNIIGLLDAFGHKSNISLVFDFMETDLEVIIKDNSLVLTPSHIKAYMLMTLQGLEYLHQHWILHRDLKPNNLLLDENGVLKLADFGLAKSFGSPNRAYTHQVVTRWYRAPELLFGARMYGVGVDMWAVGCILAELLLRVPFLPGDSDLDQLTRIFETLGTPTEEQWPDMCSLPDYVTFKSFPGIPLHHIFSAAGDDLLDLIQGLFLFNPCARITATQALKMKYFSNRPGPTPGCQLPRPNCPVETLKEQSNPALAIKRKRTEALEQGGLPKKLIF
T4 sequence (P51946 whole entry partner): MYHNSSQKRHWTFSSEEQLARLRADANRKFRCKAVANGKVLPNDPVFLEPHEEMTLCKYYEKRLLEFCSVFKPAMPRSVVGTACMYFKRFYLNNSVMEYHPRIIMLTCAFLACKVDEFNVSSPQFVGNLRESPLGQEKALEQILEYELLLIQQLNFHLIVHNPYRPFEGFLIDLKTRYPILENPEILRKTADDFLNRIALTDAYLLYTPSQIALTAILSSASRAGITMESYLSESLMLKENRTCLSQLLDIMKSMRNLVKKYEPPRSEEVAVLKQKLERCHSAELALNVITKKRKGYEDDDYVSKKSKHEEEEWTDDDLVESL
T4 sequence (P51948 whole entry partner): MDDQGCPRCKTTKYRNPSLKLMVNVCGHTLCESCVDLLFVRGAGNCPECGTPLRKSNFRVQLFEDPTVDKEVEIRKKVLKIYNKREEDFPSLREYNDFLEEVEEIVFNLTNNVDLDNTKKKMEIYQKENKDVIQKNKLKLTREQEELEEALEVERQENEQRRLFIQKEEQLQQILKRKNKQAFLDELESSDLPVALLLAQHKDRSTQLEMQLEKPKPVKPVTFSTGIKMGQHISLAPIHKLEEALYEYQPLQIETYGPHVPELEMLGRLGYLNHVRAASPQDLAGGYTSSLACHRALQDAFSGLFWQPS

Row | IC50 [1] | IC50 [2] | IC50 [3] | IC50 [4] | IC50 [5] | IC50 [6] | IC50 [7] | CDK1/CDK7: Selectivity of CDK7 inhibition over CDK1 inhibition [8] | CDK2/CDK7: Selectivity of CDK7 inhibition over CDK2 inhibition [8] | IC50 [8] | IC50 [9] | IC50 [10] | SMILES | CDK5/CDK7: Selectivity of CDK7 inhibition over CDK5 inhibition [8]
1 | < 1000 nM | > 1000 nM | < 1000 nM | ≤ 1000 nM | < 1000 nM | > 1000 nM | > 1000 nM | A (A=greater than 200 fold) | A (A=greater than 200 fold) | < 100 nM | 1000 to 10000 nM | – | CC(C)c1cnn2c(N[C@@H](C)c3ccccc3-n3cccn3)nc(N3CCC(N)CC3)nc12 [Compound 21] | A (A=greater than 200 fold)
2 | – | 100 to 1000 nM | < 1000 nM | ≤ 1000 nM | < 1000 nM | > 1000 nM | > 1000 nM | A (A=greater than 200 fold) | A (A=greater than 200 fold) | < 100 nM | – | > 10000 nM | CC(C)c1cnn2c(NCc3ccccc3-n3cccn3)nc(N3CCC(N4CCNCC4)CC3)nc12 [Compound 174] | B (B=less than 200 fold, but greater than 20 fold)
3 | < 1000 nM | 100 to 1000 nM | < 1000 nM | ≤ 1000 nM | < 1000 nM | > 1000 nM | > 1000 nM | A (A=greater than 200 fold) | A (A=greater than 200 fold) | < 100 nM | – | – | CNC(=O)c1ccn(-c2cccc(Cl)c2CNc2nc(N3CCC(N)CC3)nc3c(C(C)C)cnn23)n1 [Compound 197] | B (B=less than 200 fold, but greater than 20 fold)

Further lines, the compound ahead of its results:

Row | SMILES | IC50 [1] | IC50 [2] | IC50 [3] | IC50 [4] | IC50 [5] | IC50 [6] | IC50 [7] | CDK1/CDK7: Selectivity of CDK7 inhibition over CDK1 inhibition [8] | CDK2/CDK7: Selectivity of CDK7 inhibition over CDK2 inhibition [8] | IC50 [8] | IC50 [9] | IC50 [10] | CDK5/CDK7: Selectivity of CDK7 inhibition over CDK5 inhibition [8]
4 | CNC(=O)c1ccc2nn(-c3ccccc3CNc3nc(N4CCC(N)CC4)nc4c(C(C)C)cnn34)cc2c1 [Compound 14] | < 1000 nM | 100 to 1000 nM | < 1000 nM | ≤ 1000 nM | < 1000 nM | 100 to 1000 nM | 100 to 1000 nM | A (A=greater than 200 fold) | B (B=less than 200 fold, but greater than 20 fold) | < 100 nM | < 1000 nM | – | B (B=less than 200 fold, but greater than 20 fold)
5 | CC(C)c1cnn2c(NCc3ccccc3-n3cc4cc(Oc5ccccc5)ccc4n3)nc(N3CCC(N)CC3)nc12 [Compound 105] | – | > 1000 nM | 1000 to 10000 nM | ≤ 1000 nM | – | > 1000 nM | > 1000 nM | A (A=greater than 200 fold) | B (B=less than 200 fold, but greater than 20 fold) | < 100 nM | 1000 to 10000 nM | 1000 to 10000 nM | B (B=less than 200 fold, but greater than 20 fold)
6 | CC(C)c1cnn2c(NCc3ccccc3-n3cc4c(n3)CCNC4=O)nc(N3CCC(N)CC3)nc12 [Compound 134] | < 1000 nM | 100 to 1000 nM | 1000 to 10000 nM | 1000 to 10000 nM | < 1000 nM | 100 to 1000 nM | > 1000 nM | A (A=greater than 200 fold) | B (B=less than 200 fold, but greater than 20 fold) | < 100 nM | < 1000 nM | – | B (B=less than 200 fold, but greater than 20 fold)
7 | CC(C)c1cnn2c(NCc3ccccc3-c3cc4cccc(NC(=O)CCCN(C)C)c4[nH]3)nc(N3CCC(N)CC3)nc12 [Compound 143] | – | < 100 nM | 1000 to 10000 nM | ≤ 1000 nM | < 1000 nM | 100 to 1000 nM | 100 to 1000 nM | B (B=less than 200 fold, but greater than 20 fold) | B (B=less than 200 fold, but greater than 20 fold) | < 100 nM | 1000 to 10000 nM | – | C (C=less than 20 fold)
8 | CC(C)c1cnn2c(NCc3ccccc3-c3cc4ccccc4[nH]3)nc(N3CCNC(=O)C3)nc12 [Compound 175] | 1000 to 10000 nM | > 1000 nM | 1000 to 10000 nM | 1000 to 10000 nM | 1000 to 10000 nM | > 1000 nM | > 1000 nM | A (A=greater than 200 fold) | B (B=less than 200 fold, but greater than 20 fold) | < 100 nM | 1000 to 10000 nM | – | B (B=less than 200 fold, but greater than 20 fold)
9 | CC(C)c1cnn2c(N[C@@H](C)c3ccccc3-n3cc(N4CCNCC4)cn3)nc(N3CCC(N)CC3)nc12 [Compound 192] | < 1000 nM | > 1000 nM | 1000 to 10000 nM | 1000 to 10000 nM | < 1000 nM | > 1000 nM | > 1000 nM | A (A=greater than 200 fold) | A (A=greater than 200 fold) | < 100 nM | – | – | A (A=greater than 200 fold)
10 | CC(C)c1cnn2c(NCc3c(Cl)cccc3-n3cc(N4CCNCC4)cn3)nc(N3CCC(N)CC3)nc12 [Compound 193] | < 1000 nM | 100 to 1000 nM | < 1000 nM | ≤ 1000 nM | < 1000 nM | > 1000 nM | > 1000 nM | A (A=greater than 200 fold) | A (A=greater than 200 fold) | < 100 nM | – | – | B (B=less than 200 fold, but greater than 20 fold)
11 | CC(C)c1cnn2c(NCc3c(Cl)cccc3-c3ccn(C4CCNCC4)n3)nc(N3CCC(N)CC3)nc12 [Compound 195] | < 1000 nM | 100 to 1000 nM | < 1000 nM | ≤ 1000 nM | < 1000 nM | > 1000 nM | > 1000 nM | A (A=greater than 200 fold) | A (A=greater than 200 fold) | < 100 nM | – | – | A (A=greater than 200 fold)
12 | CC(C)c1cnn2c(NCc3c(Cl)cccc3-n3ccc(C(=O)NC4CCNCC4)n3)nc(N3CCC(N)CC3)nc12 [Compound 196] | < 1000 nM | 100 to 1000 nM | 1000 to 10000 nM | 1000 to 10000 nM | < 1000 nM | > 1000 nM | > 1000 nM | A (A=greater than 200 fold) | A (A=greater than 200 fold) | < 100 nM | – | – | A (A=greater than 200 fold)
13 | CC(C)c1cnn2c(NCc3c(Cl)cccc3-n3ccc(C(=O)N4CCNCC4)n3)nc(N3CCC(N)CC3)nc12 [Compound 198] | < 1000 nM | 100 to 1000 nM | 1000 to 10000 nM | ≤ 1000 nM | < 1000 nM | > 1000 nM | > 1000 nM | A (A=greater than 200 fold) | A (A=greater than 200 fold) | < 100 nM | – | – | A (A=greater than 200 fold)
